From patent US10131648B2, “Substituted benzothiophenyl derivatives as GPR40 agonists for the treatment of type II diabetes” (Janssen Pharmaceutica NV, priority 2014, dated 2018) come the findings set out here.

By EC50 is commonly meant the concentration that produces a half-maximal response.

The target in this test is human GPR40 (Homo sapiens (Human), UniProt O14842). The test is described as follows: GPR40 Calcium Flux Assay. The settings on record: transfected HEK293 cells stably expressing human GPR40; Ca2+ mobilization; mean data; read-out: hGPR40 Ca^2+ Assay EC50. In kind it is cell-based. The protocol: Compounds were tested in a calcium flux assay using transfected HEK293 cells stably expressing either human GPR40 or rat GPR40. Human GPR40 expressing cells were cultured in DMEM-High Glucose media supplemented with 10% fetal bovine serum, 1×L-Glutamine, 1×Penicillin/Streptomycin and 500 μg/mL G418. Rat GPR40 expressing cells were cultured in DMEM-High Glucose media supplemented with 10% fetal bovine serum and 1 μg/mL puromycin. Cells were plated into poly-D-lysine coated 384-well plates and cultured overnight in a 37° C. humidified tissue culture incubator under 5% CO2/[…] atmosphere. On the day of the experiment, the culture media was replaced with assay buffer (HBSS, 20 mM HEPES, 0.1% BSA) and the cells incubated at 37° C. for 1 h. Calcium-sensitive fluorescent dye (Fluo 8 No-Wash Calcium Dye, ABD Bioquest) was then added and the cells incubated for another 30 min at 37° C. followed by 15 min at room temperature while protected from the light. The cell plate and a plate of diluted compounds of Formula (I) were loaded into a fluorescent plate reader that added compounds onto the cells while measuring the fluorescence intensity of each well. The plate reader recorded fluorescence intensity at 1 second intervals for 8 min and provided the data for analysis in an Excel format. EC50 values were calculated using Prism (GraphPad) software.
Chain of human GPR40 (O14842 whole entry): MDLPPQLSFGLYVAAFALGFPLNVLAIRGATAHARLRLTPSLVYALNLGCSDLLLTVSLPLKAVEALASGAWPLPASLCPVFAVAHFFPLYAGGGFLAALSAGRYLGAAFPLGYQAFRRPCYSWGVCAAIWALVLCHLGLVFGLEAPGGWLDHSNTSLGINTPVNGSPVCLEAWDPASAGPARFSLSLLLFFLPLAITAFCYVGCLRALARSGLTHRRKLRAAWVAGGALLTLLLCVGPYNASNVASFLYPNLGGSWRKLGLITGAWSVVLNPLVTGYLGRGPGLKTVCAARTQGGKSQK
On to `CC#C[C@@H](CC(=O)O)c1ccc(COc2ccc3scc(-c4ccc(C5CCS(=O)(=O)CC5)cc4C)c3c2)cc1` [Cpd 26, (3S)-3-(4-(((3-(4-(1,1-Dioxidotetrahydro-2H-thiopyran-4-yl)-2-methylphenyl)benzo[b]thiophen-5-yl)oxy)methyl)phenyl)hex-4-ynoic acid], for which the EC50 is 18 nM.

As to `CC#C[C@@H](CC(=O)O)c1ccc(COc2ccc3scc(-c4c(C)cccc4C)c3c2)cc1` [Cpd 27, (3S)-3-(4-(((3-(2,6-Dimethylphenyl)benzo[b]thiophen-5-yl)oxy)methyl)phenyl)hex-4-ynoic acid], the EC50 was 20 nM.

On to `Cc1cc(C2=CCS(=O)(=O)CC2)ccc1-c1csc2ccc(COc3ccc(C4(CC(=O)O)CC(=O)C4)cc3)cc12` [Cpd 28, 2-(1-(4-((3-(4-(1,1-Dioxido-3,6-dihydro-2H-thiopyran-4-yl)-2-methylphenyl)benzo[b]thiophen-5-yl)methoxy)phenyl)-3-oxocyclobutyl)acetic acid], for which the concentration giving a half-maximal response (EC50) is 12 nM.

For the compound `Cc1cc(C2CCS(=O)(=O)CC2)ccc1-c1csc2ccc(COc3ccc(C4(CC(=O)O)CC(=O)C4)cc3)cc12` [Cpd 29, 2-(1-(4-((3-(4-(1,1-Dioxidotetrahydro-2H-thiopyran-4-yl)-2-methylphenyl)benzo[b]thiophen-5-yl)methoxy)phenyl)-3-oxocyclobutyl)acetic acid], the EC50 worked out at 34 nM.

Regarding `Cc1ccccc1-c1csc2ccc(COc3ccc(C4(CC(=O)O)CC(=O)C4)cc3)cc12` [Cpd 30, 2-(3-Oxo-1-(4-((3-(2-methylphenyl)benzo[b]thiophen-5-yl)methoxy)phenyl)cyclobutyl)acetic acid], the EC50 stood at 6 nM.

As to `Cc1ccccc1-c1csc2ccc(COc3ccc([C@]4(CC(=O)O)C[C@@H](O)C4)cc3)cc12` [Cpd 31], the EC50 was 48 nM.

`CCOCCOc1ccc(-c2csc3ccc(COc4ccc(C5(CC(=O)O)CC(=O)C5)cc4)cc23)c(C)c1` [Cpd 32, 2-(1-(4-((3-(4-(2-Ethoxyethoxy)-2-methylphenyl)benzo[b]thiophen-5-yl)methoxy)phenyl)-3-oxocyclobutyl)acetic acid]: the EC50 amounted to 36 nM.

For `Cc1cc(OC2CCS(=O)(=O)CC2)ccc1-c1csc2ccc(COc3ccc(C4(CC(=O)O)CC(=O)C4)cc3)cc12` [Cpd 33, 2-(1-(4-((3-(4-((1,1-Dioxidotetrahydro-2H-thiopyran-4-yl)oxy)-2-methylphenyl)benzo[b]thiophen-5-yl)methoxy)phenyl)-3-oxocyclobutyl)acetic acid], the EC50 worked out at 15 nM.

As for `Cc1cc(OC2CCOCC2)ccc1-c1csc2ccc(COc3ccc(C4(CC(=O)O)CC(=O)C4)cc3)cc12` [Cpd 34, 2-(1-(4-((3-(2-Methyl-4-((tetrahydro-2H-pyran-4-yl)oxy)phenyl)benzo[b]thiophen-5-yl)methoxy)phenyl)-3-oxocyclobutyl)acetic acid], the EC50 came out at 25 nM.

With `CCOCCOc1ccc(-c2csc3ccc(COc4ccc([C@]5(CC(=O)O)C[C@@H](O)C5)cc4)cc23)c(C)c1` [Cpd 35], the EC50 is 26 nM.

For `Cc1cc(OC2CCS(=O)(=O)CC2)ccc1-c1csc2ccc(COc3ccc([C@]4(CC(=O)O)C[C@@H](O)C4)cc3)cc12` [Cpd 36, 2-((1r,3r)-1-(4-((3-(4-((1,1-Dioxidotetrahydro-2H-thiopyran-4-yl)oxy)-2-methylphenyl)benzo[b]thiophen-5-yl)methoxy)phenyl)-3-hydroxycyclobutyl)acetic acid], the concentration for a half-maximal effect (EC50) turned out to be 43 nM.

In the case of `Cc1cc(OC2CCOCC2)ccc1-c1csc2ccc(COc3ccc([C@]4(CC(=O)O)C[C@@H](O)C4)cc3)cc12` [Cpd 37, 2-((1r,3r)-3-Hydroxy-1-(4-((3-(2-methyl-4-((tetrahydro-2H-pyran-4-yl)oxy)phenyl)benzo[b]thiophen-5-yl)methoxy)phenyl)cyclobutyl)acetic acid], the half-maximal effective concentration (EC50) is 17 nM.

Consider `Cc1ncccc1-c1csc2ccc(COc3ccc(C4(CC(=O)O)CC(=O)C4)cc3)cc12` [Cpd 38, 2-(1-(4-((3-(2-Methylpyridin-3-yl)benzo[b]thiophen-5-yl)methoxy)phenyl)-3-oxocyclobutyl)acetic acid], for which the EC50 was 19 nM.

As for `Cc1ncccc1-c1csc2ccc(COc3ccc([C@]4(CC(=O)O)C[C@@H](O)C4)cc3)cc12` [Cpd 39], the EC50 came to 46 nM.

`Cc1cc(N2CC3(CCS3(=O)=O)C2)ccc1-c1csc2ccc(COc3ccc(C4(CC(=O)O)CC(=O)C4)cc3)cc12` [Cpd 40, 2-(1-(4-((3-(4-(1,1-Dioxido-1-thia-6-azaspiro[3.3]heptan-6-yl)-2-methylphenyl)benzo[b]thiophen-5-yl)methoxy)phenyl)-3-oxocyclobutyl)acetic acid]: the concentration giving a half-maximal response (EC50) turned out to be 15 nM.

For the compound `CC#C[C@@H](CC(=O)O)c1ccc(OCc2ccc3scc(-c4cc(S(C)(=O)=O)ccc4C)c3c2)cc1` [Cpd 41, (3S)-3-(4-((3-(2-Methyl-5-(methylsulfonyl)phenyl)benzo[b]thiophen-5-yl)methoxy)phenyl)hex-4-ynoic acid], the 50% effective concentration (EC50) was 21 nM.

On to `CC#C[C@@H](CC(=O)O)c1ccc(OCc2ccc3scc(-c4ccc(S(C)(=O)=O)cc4C)c3c2)cc1` [Cpd 42, (3S)-3-(4-((3-(2-Methyl-4-(methylsulfonyl)phenyl)benzo[b]thiophen-5-yl)methoxy)phenyl)hex-4-ynoic acid], for which the EC50 was determined as 12 nM.

For `CC#C[C@@H](CC(=O)O)c1ccc(OCc2ccc3scc(-c4cc(NS(C)(=O)=O)ccc4C)c3c2)cc1` [Cpd 43, (3S)-3-(4-((3-(2-Methyl-5-(methylsulfonamido)phenyl)benzo[b]thiophen-5-yl)methoxy)phenyl)hex-4-ynoic acid], the concentration for a half-maximal effect (EC50) turned out to be 31 nM.

Regarding `CC#C[C@@H](CC(=O)O)c1ccc(OCc2ccc3scc(-c4c(C)cccc4NS(C)(=O)=O)c3c2)cc1` [Cpd 44, (3S)-3-(4-((3-(2-Methyl-6-(methylsulfonamido)phenyl)benzo[b]thiophen-5-yl)methoxy)phenyl)hex-4-ynoic acid], the half-maximal effective concentration (EC50) was determined as 22 nM.

With `CC#CC(CC(=O)O)c1ccc(OCc2ccc3scc(-c4ccccc4C)c3c2)nc1` (stereo not drawn) [Cpd 45, 3-(6-((3-(2-Methylphenyl)benzo[b]thiophen-5-yl)methoxy)pyridin-3-yl)hex-4-ynoic acid], the EC50 came to 13 nM.

Turning to `CC#CC(CC(=O)O)c1ccc(OCc2ccc3scc(-c4ccc(OC5CCOCC5)cc4C)c3c2)nc1` (stereo not drawn) [Cpd 46, 3-(6-((3-(2-Methyl-4-((tetrahydro-2H-pyran-4-yl)oxy)phenyl)benzo[b]thiophen-5-yl)methoxy)pyridin-3-yl)hex-4-ynoic acid], the concentration giving a half-maximal response (EC50) worked out at 18 nM.

As for `CC#CC(CC(=O)O)c1ccc(OCc2ccc3scc(-c4ccc(OCCOC)cc4C)c3c2)nc1` (stereo not drawn) [Cpd 47, 3-(6-((3-(4-(2-Methoxyethoxy)-2-methylphenyl)benzo[b]thiophen-5-yl)methoxy)pyridin-3-yl)hex-4-ynoic acid], the EC50 is 20 nM.

For the compound `CC#C[C@@H](CC(=O)O)c1ccc(OCc2ccc3scc(-c4ncc(OCCOC)cc4C)c3c2)cc1` [Cpd 48, (3S)-3-(4-((3-(5-(2-Methoxyethoxy)-3-methylpyridin-2-yl)benzo[b]thiophen-5-yl)methoxy)phenyl)hex-4-ynoic acid], the EC50 is 10 nM.

For `CC#C[C@@H](CC(=O)O)c1ccc(OCc2ccc3scc(-c4cc(OCCOC)cnc4C)c3c2)cc1` [Cpd 49, (3S)-3-(4-((3-(5-(2-Methoxyethoxy)-2-methylpyridin-3-yl)benzo[b]thiophen-5-yl)methoxy)phenyl)hex-4-ynoic acid], the EC50 stood at 9 nM.

Take `CC#C[C@@H](CC(=O)O)c1ccc(OCc2ccc3scc(-c4ccc(OCCOC)nc4C)c3c2)cc1` [Cpd 50, (3S)-3-(4-((3-(6-(2-Methoxyethoxy)-2-methylpyridin-3-yl)benzo[b]thiophen-5-yl)methoxy)phenyl)hex-4-ynoic acid]: the EC50 was determined as 12 nM.

For the compound `CC#C[C@@H](CC(=O)O)c1ccc(OCc2ccc3scc(-c4cnc(OCCOC)cc4C)c3c2)cc1` [Cpd 51, (3S)-3-(4-((3-(6-(2-Methoxyethoxy)-4-methylpyridin-3-yl)benzo[b]thiophen-5-yl)methoxy)phenyl)hex-4-ynoic acid], the concentration giving a half-maximal response (EC50) was determined as 6 nM.

On to `CC#C[C@@H](CC(=O)O)c1ccc(OCc2ccc3scc(-c4cc(Cl)ncc4C)c3c2)cc1` [Cpd 52, (3S)-3-(4-((3-(2-Chloro-5-methylpyridin-4-yl)benzo[b]thiophen-5-yl)methoxy)phenyl)hex-4-ynoic acid], for which the concentration for a half-maximal effect (EC50) was determined as 19 nM.

Consider `Cc1ccccc1-c1csc2ccc(OCc3ccc(CCC(=O)O)cc3)cc12` [Cpd 53, 3-(4-(((3-(2-Methylphenyl)benzo[b]thiophen-5-yl)oxy)methyl)phenyl)propanoic acid], for which the EC50 amounted to 890 nM.

`CC#C[C@@H](CC(=O)O)c1ccc(COc2ccc3scc(-c4ccc(OCCC(C)(C)O)cc4C)c3c2)cc1` [Cpd 54, (3S)-3-[4-[([3-[4-(3-Hydroxy-3-methylbutoxy)-2-methylphenyl]-1-benzothiophen-5-yl]oxy)methyl]phenyl]hex-4-ynoic acid]: the EC50 stood at 44 nM.

For `CC#C[C@@H](CC(=O)O)c1ccc(COc2ccc3scc(-c4ccc(OCC(O)CO)cc4C)c3c2)cc1` (stereo partly drawn) [Cpd 55, (3S)-3-[4-[([3-[4-(2,3-Dihydroxypropoxy)-2-methylphenyl]-1-benzothiophen-5-yl]oxy)methyl]phenyl]hex-4-ynoic acid], the half-maximal effective concentration (EC50) is 33 nM.
